Measurements as given in PMC12595434, “Development of retinoid nuclear receptor pathway antagonists through targeting aldehyde dehydrogenase 1A3” (iScience, 2025).

Legend:
[1] = molecular target: ADORA2A (Homo sapiens, UniProt P29274); assay: Off-target profiling panel; assay type: binding; conditions: read-out: Inhibition by MBE1 at 10 μM (%)
[2] = system: mouse T cells; assay: T cell proliferation (CFSE) co-culture with myeloid cells; assay type: cell-based; conditions: 1 μM MBE1 treatment of B16F10-ALDH1A3 cells
Description: Next, to simulate paracrine signaling from tumor cells, we collected conditioned media from isogenic B16F10 cells stably expressing either vector or ALDH1A3 and added the media to the myeloid cells prior to culturing with T cells.
Bone marrow derived monocytes were enriched using MACS isolation (#130-100-629) and >95% purity of monocytes was confirmed by staining with Ly6C-PE (Clone# HK1.4; Biolegend 128008). Monocytes were cultured in RPMI1640 at 1M/well in a 6-well plate. 20 ng/ml mGM-CSF (peprotech) and 20 ng/ml mIL-4 (peprotech) were used to differentiate monocytes to monocyte derived dendritic cells (MoDCs). 100 nM atRA or 0.1% DMSO was used to treat the cells. 3 days later, floating cells were collected and 20,000 of them were cocultured with 100,000 CD4^+ T cell labeled with CFSE (Thermo fisher scientific) at 1:5000. T cell proliferation was examined ∼72hrs after the coculture. When conditioned medium was used in differentiating MoDCs, conditioned medium was first collected from 500,000 B16-vector control cells vs. B16-mALDH1A3 cells with or without 1 μM MBE1 treatment cultured in 1.5 mL medium in a 6-well plate for ∼24hrs. Fresh RPMI1640 and conditioned medium were mixed 1:1 before applying to MoDC culture. In parallel, fresh RPMI1640 medium alone is used as a control. […]

[3] = molecular target: T1, ALDH1A3 (Homo sapiens, UniProt P47895); assay: Cellular thermal shift assay (CETSA) in A375 cells; assay type: cell-based; design: endogenous in cells; host or cells: A375 cells; conditions: 100 nM, 1h at 37°C
T1 sequence (P47895 1-512): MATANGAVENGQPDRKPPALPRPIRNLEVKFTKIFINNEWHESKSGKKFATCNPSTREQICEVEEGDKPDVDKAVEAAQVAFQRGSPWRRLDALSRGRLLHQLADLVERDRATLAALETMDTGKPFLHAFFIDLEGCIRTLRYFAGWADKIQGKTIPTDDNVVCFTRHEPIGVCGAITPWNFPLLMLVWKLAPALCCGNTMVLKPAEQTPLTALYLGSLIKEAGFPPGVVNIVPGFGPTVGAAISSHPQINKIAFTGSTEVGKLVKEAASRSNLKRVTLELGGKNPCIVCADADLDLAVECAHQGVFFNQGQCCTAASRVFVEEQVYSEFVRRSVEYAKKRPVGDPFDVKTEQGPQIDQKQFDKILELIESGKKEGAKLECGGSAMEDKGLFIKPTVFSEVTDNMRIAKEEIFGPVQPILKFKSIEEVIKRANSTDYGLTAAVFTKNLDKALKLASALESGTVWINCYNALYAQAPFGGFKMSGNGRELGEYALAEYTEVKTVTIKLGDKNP
Description: CETSA was performed according to protocols described before.[85] Briefly, 6 × 10cm dishes of A375 cells were collected and treated with 100 nM MBE1 or 0.1% DMSO for 1h at 37°C. Afterward, cells were pelleted through centrifugation at 300g for 5 min. Cells were then washed with ice-cold PBS and resuspended in 800 μL of PBS. Cell suspension was aliquoted to 7xPCR tubes with 100 μL each and subjected to thermal denaturation at 46.3, 48.6, 52.2, 56.5, 60.1, 62.5, 64.0°C for 3 min. The resulting sample was snap frozen in liquid nitrogen followed by incubation at room temperature until fully thawed. This procedure was performed twice followed by brief vortexing and mixing to release soluble proteins from the cells. Samples were then transferred to 1.5 mL Eppendorf tubes and centrifuged at 20,000g for 20 min at 4°C, 90 μL of the resulting supernatant was collected into another new 1.5 mL Eppendorf tube and subjected to protein analysis by western blot (WB). NPTN (proteintech #28022-1-AP) and ALDH1A3 (abcam #ab129815) were used to detect target proteins while GelCode Blue Stain Reagent (Thermofisher scientific #24590) was used to stain for total proteins loaded in the WB analysis.

[4] = molecular target: GR (Homo sapiens, UniProt P04150); assay: Off-target profiling panel; assay type: binding; conditions: read-out: Inhibition by MBE1 at 10 μM (%)
[5] = molecular target: M3 (Homo sapiens, UniProt P20309); assay: Off-target profiling panel; assay type: binding; conditions: read-out: Inhibition by MBE1 at 10 μM (%)
[6] = molecular target: T2, ALDH1L1 (Homo sapiens, UniProt O75891); assay: Recombinant enzyme activity assay; assay type: biochemical; conditions: selectivity profiling
T2 construct: made in house; host or cells: BL21-DE3 E. coli

[7] = molecular target: T3, ALDH1L2 (Homo sapiens, UniProt Q3SY69); assay: Recombinant enzyme activity assay; assay type: biochemical; conditions: selectivity profiling
T3 construct: made in house; host or cells: BL21-DE3 E. coli

[8] = molecular target: T4, ALDH3A1 (Homo sapiens, UniProt P30838); assay: Recombinant enzyme activity assay; assay type: biochemical; conditions: selectivity profiling
T4 construct: made in house; host or cells: BL21-DE3 E. coli
T4 sequence (P30838 whole entry): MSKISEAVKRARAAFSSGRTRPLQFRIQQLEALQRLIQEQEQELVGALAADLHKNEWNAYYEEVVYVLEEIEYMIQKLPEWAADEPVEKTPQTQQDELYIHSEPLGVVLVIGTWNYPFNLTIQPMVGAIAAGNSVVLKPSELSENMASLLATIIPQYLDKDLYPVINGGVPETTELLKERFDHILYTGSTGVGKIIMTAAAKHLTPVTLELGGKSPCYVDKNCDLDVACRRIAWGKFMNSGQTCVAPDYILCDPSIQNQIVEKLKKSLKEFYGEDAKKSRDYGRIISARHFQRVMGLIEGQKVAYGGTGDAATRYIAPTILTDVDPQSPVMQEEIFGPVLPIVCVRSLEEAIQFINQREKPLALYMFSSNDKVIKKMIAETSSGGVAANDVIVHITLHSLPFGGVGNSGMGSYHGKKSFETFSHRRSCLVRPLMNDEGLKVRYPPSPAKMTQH

GR, sequence (P04150 whole entry): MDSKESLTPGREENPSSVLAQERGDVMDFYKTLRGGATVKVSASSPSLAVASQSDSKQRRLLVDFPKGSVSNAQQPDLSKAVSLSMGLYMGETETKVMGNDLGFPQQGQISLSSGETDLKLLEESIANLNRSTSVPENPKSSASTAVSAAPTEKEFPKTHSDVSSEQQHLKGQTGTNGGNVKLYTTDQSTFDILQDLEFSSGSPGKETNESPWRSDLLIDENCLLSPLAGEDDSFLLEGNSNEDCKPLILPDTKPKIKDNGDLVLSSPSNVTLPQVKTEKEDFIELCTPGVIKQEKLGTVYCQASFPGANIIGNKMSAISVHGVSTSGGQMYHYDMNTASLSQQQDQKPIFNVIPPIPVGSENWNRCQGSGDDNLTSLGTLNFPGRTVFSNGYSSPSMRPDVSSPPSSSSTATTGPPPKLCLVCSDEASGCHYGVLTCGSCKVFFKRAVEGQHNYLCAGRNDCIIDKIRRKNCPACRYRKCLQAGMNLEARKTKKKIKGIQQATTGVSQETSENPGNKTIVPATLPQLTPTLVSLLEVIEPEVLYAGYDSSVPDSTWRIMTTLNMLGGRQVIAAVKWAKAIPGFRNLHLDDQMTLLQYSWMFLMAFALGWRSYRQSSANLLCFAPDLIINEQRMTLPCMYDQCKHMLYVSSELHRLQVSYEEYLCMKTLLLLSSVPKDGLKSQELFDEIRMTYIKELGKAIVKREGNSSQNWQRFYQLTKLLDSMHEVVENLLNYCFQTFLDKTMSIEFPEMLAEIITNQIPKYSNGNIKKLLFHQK
T2 sequence (O75891 whole entry): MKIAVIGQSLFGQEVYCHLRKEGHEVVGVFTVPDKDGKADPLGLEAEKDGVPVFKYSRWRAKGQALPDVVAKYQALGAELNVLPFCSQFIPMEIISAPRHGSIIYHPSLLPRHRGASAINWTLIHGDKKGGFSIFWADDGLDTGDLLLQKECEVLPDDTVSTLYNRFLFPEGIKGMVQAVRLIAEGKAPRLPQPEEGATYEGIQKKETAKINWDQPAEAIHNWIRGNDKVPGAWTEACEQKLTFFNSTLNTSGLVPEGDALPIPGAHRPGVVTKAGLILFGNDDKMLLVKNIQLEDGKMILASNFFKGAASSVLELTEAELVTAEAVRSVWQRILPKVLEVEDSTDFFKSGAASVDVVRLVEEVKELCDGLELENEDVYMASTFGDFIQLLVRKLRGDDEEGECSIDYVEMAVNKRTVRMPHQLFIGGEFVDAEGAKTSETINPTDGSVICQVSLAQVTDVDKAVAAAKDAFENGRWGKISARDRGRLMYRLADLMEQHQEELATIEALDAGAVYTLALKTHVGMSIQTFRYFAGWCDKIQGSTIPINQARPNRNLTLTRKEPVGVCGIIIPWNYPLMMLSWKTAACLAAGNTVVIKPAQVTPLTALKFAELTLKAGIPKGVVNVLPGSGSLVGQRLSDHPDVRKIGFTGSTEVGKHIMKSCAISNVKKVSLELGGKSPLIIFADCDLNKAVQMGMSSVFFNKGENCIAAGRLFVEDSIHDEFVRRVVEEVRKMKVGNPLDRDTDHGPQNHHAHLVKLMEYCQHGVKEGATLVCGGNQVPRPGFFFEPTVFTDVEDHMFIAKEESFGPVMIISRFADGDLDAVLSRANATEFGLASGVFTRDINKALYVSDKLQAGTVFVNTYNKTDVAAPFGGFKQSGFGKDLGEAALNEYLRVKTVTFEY
M3, sequence (P20309 whole entry): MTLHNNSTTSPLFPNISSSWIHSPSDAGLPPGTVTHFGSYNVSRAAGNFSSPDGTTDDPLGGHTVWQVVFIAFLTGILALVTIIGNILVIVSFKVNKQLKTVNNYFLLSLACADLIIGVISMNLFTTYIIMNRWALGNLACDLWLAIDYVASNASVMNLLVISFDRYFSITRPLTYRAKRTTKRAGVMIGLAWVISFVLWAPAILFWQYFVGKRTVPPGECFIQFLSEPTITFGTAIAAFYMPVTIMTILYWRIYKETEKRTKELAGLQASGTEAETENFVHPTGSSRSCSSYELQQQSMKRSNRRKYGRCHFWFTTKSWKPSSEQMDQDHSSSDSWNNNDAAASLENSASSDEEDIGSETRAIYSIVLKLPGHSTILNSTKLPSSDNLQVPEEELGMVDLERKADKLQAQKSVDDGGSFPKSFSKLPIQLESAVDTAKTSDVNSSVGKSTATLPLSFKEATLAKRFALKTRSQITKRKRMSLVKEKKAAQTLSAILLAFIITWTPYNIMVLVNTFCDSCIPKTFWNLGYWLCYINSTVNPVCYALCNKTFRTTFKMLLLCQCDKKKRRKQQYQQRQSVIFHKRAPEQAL
ADORA2A, sequence (P29274 whole entry): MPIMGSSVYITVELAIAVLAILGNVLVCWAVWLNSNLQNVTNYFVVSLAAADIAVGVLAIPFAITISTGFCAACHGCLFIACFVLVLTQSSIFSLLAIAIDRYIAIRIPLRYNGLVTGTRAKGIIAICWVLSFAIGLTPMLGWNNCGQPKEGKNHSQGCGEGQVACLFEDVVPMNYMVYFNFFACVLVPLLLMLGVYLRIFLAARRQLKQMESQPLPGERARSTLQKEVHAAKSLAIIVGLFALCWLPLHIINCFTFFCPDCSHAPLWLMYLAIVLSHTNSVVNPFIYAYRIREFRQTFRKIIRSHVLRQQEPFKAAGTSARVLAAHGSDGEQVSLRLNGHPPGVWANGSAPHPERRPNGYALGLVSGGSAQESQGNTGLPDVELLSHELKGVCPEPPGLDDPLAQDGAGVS
T3 sequence (Q3SY69 whole entry): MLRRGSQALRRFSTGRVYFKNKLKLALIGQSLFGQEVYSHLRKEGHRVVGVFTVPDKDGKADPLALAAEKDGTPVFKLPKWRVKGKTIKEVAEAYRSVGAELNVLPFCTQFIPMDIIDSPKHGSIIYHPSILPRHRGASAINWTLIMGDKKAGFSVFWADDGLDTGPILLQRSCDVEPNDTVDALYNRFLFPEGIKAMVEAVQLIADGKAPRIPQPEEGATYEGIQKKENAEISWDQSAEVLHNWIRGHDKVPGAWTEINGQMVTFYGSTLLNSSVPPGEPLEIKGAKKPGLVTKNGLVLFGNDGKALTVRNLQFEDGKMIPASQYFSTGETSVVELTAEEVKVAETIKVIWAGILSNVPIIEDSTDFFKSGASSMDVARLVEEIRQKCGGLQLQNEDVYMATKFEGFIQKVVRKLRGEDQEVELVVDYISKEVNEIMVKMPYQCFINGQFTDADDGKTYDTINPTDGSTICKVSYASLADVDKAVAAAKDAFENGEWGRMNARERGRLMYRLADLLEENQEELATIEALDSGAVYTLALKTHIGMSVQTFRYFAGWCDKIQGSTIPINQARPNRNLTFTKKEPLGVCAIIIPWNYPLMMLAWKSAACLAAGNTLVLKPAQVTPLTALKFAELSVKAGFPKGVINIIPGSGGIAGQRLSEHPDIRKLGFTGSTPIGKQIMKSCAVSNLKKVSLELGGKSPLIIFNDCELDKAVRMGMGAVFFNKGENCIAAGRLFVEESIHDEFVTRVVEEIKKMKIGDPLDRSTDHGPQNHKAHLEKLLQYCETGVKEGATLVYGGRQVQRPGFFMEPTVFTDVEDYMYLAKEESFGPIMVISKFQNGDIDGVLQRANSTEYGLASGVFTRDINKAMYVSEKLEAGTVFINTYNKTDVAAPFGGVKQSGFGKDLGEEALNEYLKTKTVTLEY

inhibitory activity against ALDH1L1 (in words) [6] | inhibitory activity against ALDH1L2 (in words) [7] | inhibitory activity against ALDH3A1 (in words) [8] | SMILES | inhibition at 10 µM [1] [%] | T cell proliferation block by B16F10-ALDH1A3 conditioned media (in words) [2] | stabilization of ALDH1A3 in CETSA (in words) [3] | inhibition at 10 µM [4] [%] | inhibition at 10 µM [5] [%]
 |  |  | CCc1cnccc1C(=O)Nc1cc2c(cc1F)NC(=O)CC2 [MBE1, 3-ethyl-N-(7-fluoro-2-oxo-3,4-dihydro-1H-quinolin-6-yl)pyridine-4-carboxamide] | -15.7 | proliferation block disappeared | increased stability and solubility at high temperatures | -13.5 | -13.4
no inhibition | no inhibition | no inhibition | CCc1ccccc1C(=O)Nc1cc2c(cc1F)NC(=O)CC2 [MBE1.5, 2-ethyl-N-(7-fluoro-2-oxo-3,4-dihydro-1H-quinolin-6-yl)benzamide] |  |  |  |  | 
